This passage reports Emax and EC50 results from US20250026752A1, “POSITIVE ALLOSTERIC MODULATORS OF THE MUSCARINIC ACETYLCHOLINE RECEPTOR M4” (Vanderbilt University, priority 2021, published 2025).

The target in this assay is T1, human mAChR M4 (Homo sapiens, UniProt P08173).
T1 construct: expressed in transfected cells; host or cells: CHO-K1 (ATCC), stably expressing hM4 and Gqi5
T1 sequence (P08173 1-479): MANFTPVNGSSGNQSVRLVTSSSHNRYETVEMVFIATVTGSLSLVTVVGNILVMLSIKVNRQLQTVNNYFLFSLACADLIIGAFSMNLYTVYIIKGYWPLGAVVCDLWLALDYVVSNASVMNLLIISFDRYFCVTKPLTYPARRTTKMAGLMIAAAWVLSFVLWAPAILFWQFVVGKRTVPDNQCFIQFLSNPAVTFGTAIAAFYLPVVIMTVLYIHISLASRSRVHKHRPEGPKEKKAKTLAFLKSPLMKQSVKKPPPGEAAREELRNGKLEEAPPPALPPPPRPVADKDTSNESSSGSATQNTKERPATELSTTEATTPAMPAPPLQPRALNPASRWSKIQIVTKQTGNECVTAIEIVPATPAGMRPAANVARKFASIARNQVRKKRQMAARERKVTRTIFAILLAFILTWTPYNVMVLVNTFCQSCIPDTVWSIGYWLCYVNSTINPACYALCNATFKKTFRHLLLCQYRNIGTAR
The assay is described as follows: mAChR M4 cell-based functional assay: calcium flux (Fluo-4, FDSS), positive allosteric modulator activity on the EC20 acetylcholine response, hM4-Gqi5 CHO-K1 cells. To be noted: for Emax at 30 µM: CHO-K1, human M4, % ACh maximum at 30 μM; for EC50: human M4, PAM activity on EC20 acetylcholine response, calcium flux, read-out: Human M4 EC50. The method, boiled down: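 Potentiation was taken as the concentration-dependent rise in the EC20 acetylcholine calcium response, fitted by a four-parameter logistic with EC20 as baseline. Fluo-4-loaded hM4-Gqi5 CHO-K1 cells received 11-point, threefold-diluted compound before acetylcholine at 144 s; FDSS read at 1 Hz.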
(In general: Calcium assays in cells follow changes in intracellular calcium, usually with a dye or a luminescent sensor.)

The term Emax denotes the maximal effect, on the per cent scale that the assay sets. As usually defined, the EC50 is the concentration giving half of the maximal effect. In the case of `Cc1nn(C)cc1-c1cnc2c(c1)CN(c1nc(C3CC3)nc3ccc(Cl)cc13)CC2` [Compound 191, 6-chloro-2-cyclopropyl-4-[3-(1,3-dimethylpyrazol-4-yl)-7,8-dihydro-5H-1,6-naphthyridin-6-yl]quinazoline], the Emax at 30 µM was determined as 80% and the EC50 was 1070 nM.
The matching figures for `COc1ccc2nc(C)nc(N3CCc4ncc(-c5cnc(F)cc5C)cc4C3)c2c1` [Compound 312, 4-(3-(6-fluoro-4-methylpyridin-3-yl)-7,8-dihydro-1,6-naphthyridin-6(5H)-yl)-6-methoxy-2-methylquinazoline]: 76% and 150 nM.
The matching figures for `Cc1noc(C)c1-c1cnc2c(c1)CN(c1ncnc3ccc(Cl)cc13)CC2` [Compound 2, 4-[6-(6-chloroquinazolin-4-yl)-7,8-dihydro-5H-1,6-naphthyridin-3-yl]-3,5-dimethyl-isoxazole]: 86% and 60 nM.
With `Cc1nc(N2CCc3ncc(N4CCOC(c5ccccn5)C4)cc3C2)c2cc(F)ccc2n1` (stereo not drawn) [Compound 224, 4-(6-(6-fluoro-2-methylquinazolin-4-yl)-5,6,7,8-tetrahydro-1,6-naphthyridin-3-yl)-2-(pyridin-2-yl)morpholine], the Emax at 30 µM was 72% and the concentration for a half-maximal effect (EC50) came out at 930 nM.
As to `Fc1ccc2nc(N3CCOc4ncccc43)nc(N3CCc4ncc(C(F)(F)F)cc4C3)c2c1` [Compound 198, 1-[6-fluoro-4-[3-(trifluoromethyl)-7,8-dihydro-5H-1,6-naphthyridin-6-yl]quinazolin-2-yl]-2,3-dihydropyrido[2,3-b][1,4]oxazine], the Emax at 30 µM stood at 94% and the EC50 was determined as 670 nM.
The matching figures for `Cn1nccc1-c1cnc2c(c1)CN(c1ncnc3ccc(F)cc13)CC2` [Compound 18, 6-fluoro-4-[3-(2-methylpyrazol-3-yl)-7,8-dihydro-5H-1,6-naphthyridin-6-yl]quinazoline]: 70% and 40 nM.
Turning to `Clc1ccc2ncnc(N3CCc4ncc(N5CCOc6ncccc65)cc4C3)c2c1` [Compound 105, 1-[6-(6-chloroquinazolin-4-yl)-7,8-dihydro-5H-1,6-naphthyridin-3-yl]-2,3-dihydropyrido[2,3-b][1,4]oxazine], the maximum response (Emax) at 30 µM is 91% and the EC50 was found to be 70 nM.
The like results for `COc1ccc2ncnc(N3CCc4ncc(Nc5cccnc5F)cc4C3)c2c1` [Compound 81, N-(2-fluoro-3-pyridyl)-6-(6-methoxyquinazolin-4-yl)-7,8-dihydro-5H-1,6-naphthyridin-3-amine] were, in that order, 95% and 460 nM.
Consider `C[C@H]1CN(c2ncnc3cc(F)c(F)cc23)Cc2cc(N3CCOCC3)cnc21` [Compound 261, (S)-4-(6-(6,7-difluoroquinazolin-4-yl)-8-methyl-5,6,7,8-tetrahydro-1,6-naphthyridin-3-yl)morpholine], for which the Emax at 30 µM came out at 79% and the EC50 is 440 nM.
Regarding `Fc1ccc2ncnc(N3CCc4ncc(Nc5cccnc5F)cc4C3)c2c1` [Compound 82, N-(2-fluoro-3-pyridyl)-6-(6-fluoroquinazolin-4-yl)-7,8-dihydro-5H-1,6-naphthyridin-3-amine], the Emax at 30 µM worked out at 104% and the 50% effective concentration (EC50) came to 70 nM.
The like results for `Fc1cc2ncnc(N3CCc4ncc(CC(F)(F)F)cc4C3)c2cc1F` [Compound 286, 6,7-difluoro-4-(3-(2,2,2-trifluoroethyl)-7,8-dihydro-1,6-naphthyridin-6(5H)-yl)quinazoline] were, in that order, 97% and 170 nM.
Regarding `COc1cc2c(N3CCc4ncc(C(F)(F)F)cc4C3)nc(C)nc2cc1F` [Compound 169, 7-fluoro-6-methoxy-2-methyl-4-[3-(trifluoromethyl)-7,8-dihydro-5H-1,6-naphthyridin-6-yl]quinazoline], the Emax at 30 µM is 74% and the EC50 worked out at 260 nM.
The like results for `CC1CN(c2ncnc3ccc(F)cc23)Cc2cc(C(F)(F)F)cnc21` (single isomer, unassigned) [Compound 116, 6-fluoro-4-[(8R or S)-8-methyl-3-(trifluoromethyl)-7,8-dihydro-5H-1,6-naphthyridin-6-yl]quinazoline] were, in that order, 113% and 70 nM.
The like results for `Fc1cc2c(N3CCc4ncc(N5CCCn6nccc65)cc4C3)nc(Cl)nc2cc1Cl` [Compound 109, 2,7-dichloro-4-[3-(6,7-dihydro-5H-pyrazolo[1,5-a]pyrimidin-4-yl)-7,8-dihydro-5H-1,6-naphthyridin-6-yl]-6-fluoro-quinazoline] were, in that order, 80% and 460 nM.
The like results for `Cc1nc(N2CCc3ncc(-c4cnc(C)s4)cc3C2)c2cc(F)ccc2n1` [Compound 23, 5-[6-(6-fluoro-2-methyl-quinazolin-4-yl)-7,8-dihydro-5H-1,6-naphthyridin-3-yl]-2-methyl-thiazole] were, in that order, 93% and 170 nM.
Consider `Fc1ccc2ncnc(N3CCc4ncc(Nc5ccncc5F)cc4C3)c2c1` [Compound 315, N-(3-fluoropyridin-4-yl)-6-(6-fluoroquinazolin-4-yl)-5,6,7,8-tetrahydro-1,6-naphthyridin-3-amine], for which the Emax at 30 µM came to 81% and the half-maximal effective concentration (EC50) amounted to 10 nM.
The matching figures for `Fc1ccc2nc(C3CC3)nc(N3CCc4ncc(C(F)(F)F)cc4C3)c2c1` [Compound 178, 2-cyclopropyl-6-fluoro-4-[3-(trifluoromethyl)-7,8-dihydro-5H-1,6-naphthyridin-6-yl]quinazoline]: 112% and 1900 nM.
On to `CC1CCN(c2cnc3c(c2)CN(c2ncnc4ccc(F)cc24)CC3)c2ccnn21` (stereo not drawn) [Compound 227, 6-fluoro-4-(3-(7-methyl-6,7-dihydropyrazolo[1,5-a]pyrimidin-4(5H)-yl)-7,8-dihydro-1,6-naphthyridin-6(5H)-yl)quinazoline], for which the Emax at 30 µM turned out to be 75% and the EC50 came out at 80 nM.
Turning to `Cc1nc(N2CCc3ncc(-c4cn(C)nc4C)cc3C2)c2cc(Cl)ccc2n1` [Compound 7, 6-chloro-4-[3-(1,3-dimethylpyrazol-4-yl)-7,8-dihydro-5H-1,6-naphthyridin-6-yl]-2-methyl-quinazoline], the Emax at 30 µM turned out to be 93% and the EC50 amounted to 250 nM.
The matching figures for `Fc1cc2ncnc(N3CCc4ncc(N5CCCn6ccnc65)cc4C3)c2cc1F` [Compound 277, 4-(3-(6,7-dihydroimidazo[1,2-a]pyrimidin-8(5H)-yl)-7,8-dihydro-1,6-naphthyridin-6(5H)-yl)-6,7-difluoroquinazoline]: 67% and 2630 nM.
The like results for `COc1ccc2nc(O)nc(N3CCc4ncc(C(F)(F)F)cc4C3)c2c1` [Compound 221, 6-methoxy-4-(3-(trifluoromethyl)-7,8-dihydro-1,6-naphthyiridin-6(5H)-yl)quinazolin-2-ol] were, in that order, 44% and 1490 nM.
The matching figures for `Fc1cc2ncnc(N3CCc4ncc(Nc5cccnc5F)cc4C3)c2cc1F` [Compound 243, 6-(6,7-difluoroquinazolin-4-yl)-N-(2-fluoropyridin-3-yl)-5,6,7,8-tetrahydro-1,6-naphthyridin-3-amine]: 91% and 70 nM.
Regarding `COc1ccc2ncnc(N3CCc4ncc(N5CCOc6ncccc65)cc4C3)c2c1` [Compound 79, 1-[6-(6-methoxyquinazolin-4-yl)-7,8-dihydro-5H-1,6-naphthyridin-3-yl]-2,3-dihydropyrido[2,3-b][1,4]oxazine], the Emax at 30 µM was 105% and the EC50 was 250 nM.
Turning to `COc1ccc2nc(C)nc(N3CCc4ncc(-c5ccccc5C)cc4C3)c2c1` [Compound 314, 6-methoxy-2-methyl-4-(3-(o-tolyl)-7,8-dihydro-1,6-naphthyridin-6(5H)-yl)quinazoline], the maximal response (Emax) at 30 µM is 77% and the EC50 is 4670 nM.
Turning to `Cc1nc(N2CCc3ncc(N4CCOc5ncccc54)cc3C2)c2cc(Cl)ccc2n1` [Compound 107, 1-[6-(6-chloro-2-methyl-quinazolin-4-yl)-7,8-dihydro-5H-1,6-naphthyridin-3-yl]-2,3-dihydropyrido[2,3-b][1,4]oxazine], the Emax at 30 µM turned out to be 98% and the EC50 stood at 140 nM.
The like results for `Cn1nccc1-c1cnc2c(c1)CN(c1ncnc3ccc(Cl)cc13)CC2` [Compound 39, 6-chloro-4-[3-(2-methylpyrazol-3-yl)-7,8-dihydro-5H-1,6-naphthyridin-6-yl]quinazoline] were, in that order, 84% and 60 nM.
The matching figures for `FC(F)(F)c1cnc2c(c1)CN(c1ncnc3ccc(Br)cc13)CC2` [Compound 136, 6-bromo-4-[3-(trifluoromethyl)-7,8-dihydro-5H-1,6-naphthyridin-6-yl]quinazoline]: 98% and 160 nM.
